From patent US20260234144A1 (TAY THERAPEUTICS LIMITED, priority 2023, published 2026) come the findings set out here.

The assay deals with R223X stop codon in the mutated luciferase gene, ADXC8 luciferase reporter cell line. In words: cells. The class given is cell-based. The note with it: ADXC8 cells, 24 hours; for Emax / EC (100% of 200 uM G418 response): 24 h; for Emax: read-out: Fold Over Control, maximum fold response relative to 200 μM G418; for EC (100% of 200 uM G418 response): read-out: pC100%, negative logarithm of the concentration giving the same response as 200 μM G418. As for the experimental part:
The read-through activity of compounds was assessed using the ADXC8 luciferase reporter cell line (generated as described in McElroy et al. PLoS Biology (2013), 11, e1001593). […] The amount of luciferase is measured by adding a lysis buffer containing luciferin substrate and detecting luminescence using the following protocol:
ADXC8 cells in assay media (DMEM+10% FBS) were seeded into 96-well tissue culture treated white plates (Greiner) to a density of 13,000 cells per well and incubated for 24 hours at 37° C. in an atmosphere of 5% CO2. […] Plates were incubated for a further 24 hours at 37° C. in an atmosphere of 5% CO2. Cells treated with 200 μM G418 (with 1% DMSO) were used as a positive control.
Cell viability and firefly luciferase activity were measured in the same assay wells. CellTiter-Fluor™ reagent was prepared as per manufacturer's instructions (Promega E7120) and 20 μl of 5× CellTiter-Fluor™ reagent was added to all wells, briefly mixed by orbital shaking (300-500 rpm for −30 seconds) and the plates incubated for 30-45 minutes at 37° C. in an atmosphere of 5% C02. Cell viability was measured by monitoring fluorescence on a CLARIOstar® plate reader (BMG Labtech). Cells containing 1% DMSO were used as a positive control and cells with 400 μM Doxorubicin were used as negative control to define 100 and 0% respectively. ONE-Glo™ luciferase assay buffer (Promega E7120) was prepared according to manufacturer's instructions and 100 μl of luciferase reagent was added to each well and the plate incubated at RT for 3 mins before measuring the luminescence on the CLARIOstar® plate reader (BMG Labtech). Cells treated with 200 μM G418 (with 1% DMSO) were used as a positive control and arbitrarily assigned a value of 100%. Cells treated with 1% DMSO were used as the negative control to define 0% response.
Concentration effect curves were analysed using non-linear regression using the CDD Vault from Collaborative Drug Discovery (Burlingame, CA). […] The bottom and top of the curves were constrained to 0 and the maximum measured response respectively. From the fitted curves, the software derived C100% values (the concentration giving the same response as 200 μM G418) for each compound. The negative logarithm of C100% is reported as pC100% (Table 1). In addition to pC100% values, the maximum fold response relative to 200 μM G418 (Fold over Control) was also captured (Table 1). A pC100% categorisation of ‘-’ in Table 1 represents examples in which a pC100% response was not reached when assayed at a concentration of 100 μM. A pC100% categorisation of ‘*’ in Table 1 represents examples in which a pC100% response was not reached when assayed at a concentration of 30 μM.

Bounds are passed on as bounds.

On to `Cc1cc(C)c2c(N)nc(NC3CCCNCC3)nc2n1` (stereo not shown) [Example 140, A2-(azepan-4-yl)-5,7-dimethylpyrido[2,3-d]pyrimidine-2,4-diamine], for which the Emax was 100 to 3000% and the EC (100% of 200 uM G418 response) is 1 to 10 µM.

As for `Cc1cc(C)c2c(N)nc(NCCCN3CCC4(CCOCC4)C3)nc2n1` [Example 189], the Emax lay in the range of 0 to 100% and the EC (100% of 200 uM G418 response) is greater than 31.6 µM.

Turning to `COCc1ccnc2nc(NC3CCN(C)CC3)nc(N)c12` [Example 248, 5-(methoxymethyl)-N^2-(1-methylpiperidin-4-yl)pyrido[2,3-d]pyrimidine-2,4-diamine], the Emax fell in the range of 0 to 100% and the EC (100% of 200 uM G418 response) is greater than 100 µM.

On to `Cc1cc(C)c2c(N)nc(NCCCN3CC4(CCCO4)C3)nc2n1` [Example 192], for which the Emax lay within 0 to 100% and the EC (100% of 200 uM G418 response) is greater than 31.6 µM.

As for `Cc1cc(C)c2c(N)nc(NC3CCCN(C(=O)OC(C)(C)C)CC3)nc2n1` (stereo not shown) [Example 131, tert-butyl 4-((4-amino-5,7-dimethylpyrido[2,3-d]pyrimidin-2-yl)amino)azepane-1-carboxylate], the Emax was 0 to 100% and the EC (100% of 200 uM G418 response) was greater than 100 µM.

Regarding `Cc1cc(C)c2c(N)nc(N[C@H]3CN4CCC3CC4)nc2n1` [Example 198], the Emax fell in the range of 0 to 100% and the EC (100% of 200 uM G418 response) is greater than 31.6 µM.

Regarding `Cc1cc(C)c2c(N)nc(N[C@H]3CN[C@H](C)C3)nc2n1` [Example 209], the Emax fell in the range of 100 to 3000% and the EC (100% of 200 uM G418 response) is 1 to 10 µM.

Consider `CN1CCC(Nc2nc(N)c3ccc(-c4ccccc4N(C)C)nc3n2)CC1` [Example 72], for which the Emax lay within 0 to 100% and the EC (100% of 200 uM G418 response) is greater than 100 µM.

For the compound `CNc1nc(N[C@@H]2C[C@@H](C)N(C)C2)nc2nc(C)cc(C)c12` [Example 375], the Emax fell in the range of 100 to 3000% and the EC (100% of 200 uM G418 response) lay in the range of 0.1 to 1 µM.

With `CN1CCC(Nc2nc(N)c3ccc(-c4ccc(C#N)cc4)nc3n2)CC1` [Example 95], the EC (100% of 200 uM G418 response) lay within 10 to 100 µM.

For `CN1CCC(Nc2nc(N)c3ccc(-c4ccc(O)cc4)nc3n2)CC1` [Example 102], the Emax lay within 100 to 3000% and the EC (100% of 200 uM G418 response) lay in the range of 10 to 100 µM.

Regarding `COCc1cccc(-c2ccc3c(N)nc(NC4CCN(C)CC4)nc3n2)c1` [Example 81], the EC (100% of 200 uM G418 response) is 1 to 10 µM.

For `CNc1nc(N[C@@H]2CCN(C)C2)nc2nc(OC)cc(C)c12` [Example 616], the Emax was in the range of 100 to 3000% and the EC (100% of 200 uM G418 response) was in the range of 1 to 10 µM.

As to `COCc1ccccc1-c1ccc2c(N)nc(NC3CCN(C)CC3)nc2n1` [Example 58], the Emax lay within 100 to 3000% and the EC (100% of 200 uM G418 response) was 10 to 100 µM.

With `CNc1nc(NC2C3CCC2CN(C(C)C)C3)nc2nc(C)cc(C)c12` (single isomer, unassigned) [Example 436], the “Fold Over Control” value (maximum fold response relative to 200 μM G418) is “## (Fold over Ctrl > 1 ≤ 30)”. In addition, for the setting “negative logarithm of the concentration giving the same response as 200 μM G418”, the pC100% entry is listed as “+ (pC100% > 4.0 ≤ 5.0)”.

On to `CN1CCC(Nc2nc(N)c3ccc(-c4ccccc4C(=O)O)nc3n2)CC1` [Example 87], for which the Emax was 0 to 100% and the EC (100% of 200 uM G418 response) was greater than 100 µM.

Regarding `CNc1cc(N[C@@H]2CCN(C)C2)nc2nc(C)cc(C)c12` [Example 515, (R)—N^4,5,7-trimethyl-N^2-(1-methylpyrrolidin-3-yl)-1,8-naphthyridine-2,4-diamine], the Emax lay within 100 to 3000% and the EC (100% of 200 uM G418 response) fell in the range of 1 to 10 µM.

`Cc1cc(C)c2c(N)cc(NCCCN3CCOCC3)nc2n1` [Example 300]: the Emax was in the range of 100 to 3000% and the EC (100% of 200 uM G418 response) lay within 1 to 10 µM.

As for `Cc1cc(C)c2c(NCC(N)=O)nc(NC3CCN(C)CC3)nc2n1` [Example 314], the Emax was in the range of 0 to 100% and the EC (100% of 200 uM G418 response) is greater than 31.6 µM.

Regarding `CN1CCC(Nc2nc(N)c3ccc(-c4ccc(N)cc4)nc3n2)CC1` [Example 68], the Emax lay in the range of 100 to 3000% and the EC (100% of 200 uM G418 response) lay within 10 to 100 µM.

As for `Cc1cc(C)c2c(N)nc(NC3CCN(C4COC4)CC3)nc2n1` [Example 197], the Emax was 0 to 100% and the EC (100% of 200 uM G418 response) was greater than 31.6 µM.

For the compound `Cc1cc(C)c2c(N)nc(NC3CCN(Cc4c(C)cccc4O)CC3)nc2n1` [Example 538], the Emax was 100 to 3000% and the EC (100% of 200 uM G418 response) fell in the range of 0.1 to 1 µM.

For the compound `CNc1nc(N[C@@H]2CCN(C)C2)nc2nc3c(c(C)c12)CCO3` [Example 514, (R)—N^4,5-dimethyl-N^2-(1-methylpyrrolidin-3-yl)-6,7-dihydrofuro[3′,2′:5,6]pyrido[2,3-d]pyrimidine-2,4-diamine], the Emax lay within 100 to 3000% and the EC (100% of 200 uM G418 response) was 1 to 10 µM.

As to `CNc1nc(NC2CNCC23COC3)nc2nc(C)cc(C)c12` (stereo not shown) [Example 410], the Emax lay in the range of 0 to 100% and the EC (100% of 200 uM G418 response) was greater than 31.6 µM.

In the case of `C#Cc1ccnc2nc(NC3CCN(C)CC3)nc(N)c12` [Example 249, 5-ethynyl-N^2-(1-methylpiperidin-4-yl)pyrido[2,3-d]pyrimidine-2,4-diamine], the Emax lay in the range of 100 to 3000% and the EC (100% of 200 uM G418 response) was 10 to 100 µM.

Take `CNc1nc(N[C@@H]2C[C@@H](O)CN(C)C2)nc2nc(C)cc(C)c12` [Example 604]: the Emax lay within 100 to 3000% and the EC (100% of 200 uM G418 response) lay within 1 to 10 µM.

Turning to `Cc1c2c(nc3nc(NC4CCN(Cc5ccc(C(=O)O)cc5)CC4)nc(N)c13)CCC2` [Example 673], the Emax lay within 100 to 3000% and the EC (100% of 200 uM G418 response) is 1 to 10 µM.

`CNc1nc(N[C@H]2CN(C)C[C@@H]2O)nc2nc(C)c(C)c(C)c12` [Example 520, (3S,4S)-1-methyl-4-((5,6,7-trimethyl-4-(methylamino)pyrido[2,3-d]pyrimidin-2-yl)amino)pyrrolidin-3-ol]: the Emax lay in the range of 100 to 3000% and the EC (100% of 200 uM G418 response) fell in the range of 0.1 to 1 µM.

Take `CN1CCC(Nc2nc(N)c3ccc(-c4ccc(F)cc4F)nc3n2)CC1` [Example 85]: the EC (100% of 200 uM G418 response) lay in the range of 1 to 10 µM.

Take `CNc1nc(N[C@H]2CN(C)C[C@@H]2OC(=O)C(C)C)nc2nc3c(c(C)c12)CCC3` [Example 684, (3S,4S)-1-methyl-4-((5-methyl-4-(methylamino)-7,8-dihydro-6H-cyclopenta[5,6]pyrido[2,3-d]pyrimidin-2-yl)amino)pyrrolidin-3-yl isobutyrate]: the Emax is 100 to 3000% and the EC (100% of 200 uM G418 response) lay within 0.1 to 1 µM.

`CNc1cc(N[C@@H]2CCN(C)C2)nc2nc3c(c(C)c12)CCC3` [Example 258, (R)—N^4,5-dimethyl-N^2-(1-methylpyrrolidin-3-yl)-7,8-dihydro-6H-cyclopenta[b][1,8]naphthyridine-2,4-diamine]: the Emax was 100 to 3000% and the EC (100% of 200 uM G418 response) lay within 0.1 to 1 µM.

For `CNc1nc(N[C@@]2(C)CCNC2)nc2nc(C)cc(C)c12` [Example 637], the Emax was in the range of 0 to 100% and the EC (100% of 200 uM G418 response) was greater than 31.6 µM.

As to `CNc1nc(N[C@H]2C[C@@H](C)N(C)C2)nc2nc(C)cc(C)c12` [Example 371], the Emax was in the range of 100 to 3000% and the EC (100% of 200 uM G418 response) was in the range of 10 to 100 µM.

In the case of `Cc1cc(C)c2c(N)nc(N[C@@H]3CCCCNC3)nc2n1` [Example 313], the Emax fell in the range of 100 to 3000% and the EC (100% of 200 uM G418 response) lay in the range of 1 to 10 µM.

For `CNc1nc(N[C@H]2C3CC[C@@H]2NC3)nc2nc(C)cc(C)c12` [Example 444], the Emax is 100 to 3000% and the EC (100% of 200 uM G418 response) was in the range of 10 to 100 µM.
